Target: Akita16 HA (crystal construct) (Influenza A virus (A/black swan/Akita/1/2016(H5N6)), UniProt A0A1L7N0F8)

CC(=O)N[C@H]1[C@H](O[C@H]2[C@@H](O)[C@@H](CO)O[C@@H](O[C@H]3[C@H](O)[C@@H](O)C(O)O[C@@H]3CO)[C@@H]2O)O[C@H](CO)[C@@H](O)[C@@H]1O[C@@H]1O[C@H](CO)[C@H](O)[C@H](O[C@]2(C(=O)O)C[C@H](O)[C@@H](NC(C)=O)[C@H]([C@H](O)[C@H](O)CO)O2)[C@H]1O (stereo partly shown) [LSTa, NeuAcα2-3Galβ1-3GlcNAcβ1-3Galβ1-4Glc]
X-ray crystal structure of complex, 2.71 Å: Akita16-WT HA structure with avian-type receptor analog, LSTa
